# Measurements reported in ChEMBL document CHEMBL4689842, “EUbOPEN Chemogenomics Library wave 1” (2021).
# What was measured:
# Type in all cases: toxicity, cell-based
# Fibroblast = assay: Incucyte cell viability with human fibroblast; settings: 10 µM, compound concentration 10 uM
# HEK-293T = assay: Incucyte cell viability with HEK293T; settings: human, 10 µM, compound concentration 10 uM
# U2OS = assay: Incucyte cell viability with U2OS; settings: human, 10 µM, compound concentration 10 uM
# [1] = 0 h, replicate number 1, timepoint 0 hours
# [2] = 6 h, replicate number 1, timepoint 6 hours
# [3] = 12 h, replicate number 1, timepoint 12 hours
# [4] = 18 h, replicate number 1, timepoint 18 hours
# [5] = 24 h, replicate number 1, timepoint 24 hours
# [6] = 24 h, replicate number 2, timepoint 24 hours
# [7] = 6 h, replicate number 2, timepoint 6 hours
# Further: filed as whole numbers so only -1 and 0 and 1 occur.
structure (smiles),measurement,setting,value
C[C@H](Cc1cc2c(c(C(N)=O)c1)N(CCCO)CC2)NCCOc1ccccc1OCC(F)(F)F [SILODOSIN],Growth Rate,Fibroblast; [1],0
same,Growth Rate,Fibroblast; [2],0
same,Growth Rate,Fibroblast; [3],0
same,Growth Rate,Fibroblast; [4],0
same,Growth Rate,Fibroblast; [5],1
same,Growth Rate,Fibroblast; [6],0
same,Growth Rate,HEK-293T; [1],0
same,Growth Rate,HEK-293T; [2],0
same,Growth Rate,HEK-293T; [3],0
same,Growth Rate,HEK-293T; [4],0
same,Growth Rate,HEK-293T; [5],0
same,Growth Rate,U2OS; [1],0
same,Growth Rate,U2OS; [7],0
same,Growth Rate,U2OS; [3],1
same,Growth Rate,"U2OS; 12 h, replicate number 2, timepoint 12 hours",0
same,Growth Rate,U2OS; [4],1
same,Growth Rate,U2OS; [5],1
same,Growth Rate,U2OS; [6],0
O=S(=O)(c1ccccc1)N(CC(F)(F)F)c1ccc(C(O)(C(F)(F)F)C(F)(F)F)cc1 [T091317],Growth Rate,Fibroblast; [1],0
same,Growth Rate,Fibroblast; [2],0
same,Growth Rate,Fibroblast; [3],0
same,Growth Rate,Fibroblast; [4],0
same,Growth Rate,Fibroblast; [5],0
same,Growth Rate,HEK-293T; [1],0
same,Growth Rate,HEK-293T; [2],0
same,Growth Rate,HEK-293T; [7],1
same,Growth Rate,HEK-293T; [3],0
same,Growth Rate,HEK-293T; [4],0
same,Growth Rate,HEK-293T; [5],0
same,Growth Rate,U2OS; [1],0
same,Growth Rate,U2OS; [3],1
same,Growth Rate,U2OS; [4],1
same,Growth Rate,U2OS; [5],1
